Organism: Rattus norvegicus
Assay: DrugMatrix - Regimen: Daily Repeat
Assay type: toxicity, organism-based, Sprague-Dawley
Parameters: regimen Daily Repeat, gender Male, age 6-8 weeks
Conditions: in vivo, po, route oral GAVAGE, vehicle 100 % WATER; for ABSOLUTE BASOPHIL / ABSOLUTE EOSINOPHIL / ABSOLUTE LYMPHOCYTE / ABSOLUTE MONOCYTE / ABSOLUTE SEGMENTED NEUTROPHIL / BASOPHIL / EOSINOPHIL / ERYTHROCYTE COUNT / HEMATOCRIT / HEMOGLOBIN / LEUKOCYTE COUNT / LYMPHOCYTE / MEAN CORPUSCULAR HEMOGLOBIN / MEAN CORPUSCULAR HEMOGLOBIN CONCENTRATION / MEAN CORPUSCULAR VOLUME / MONOCYTE / NEUTROPHIL / NUCLEATED RED BLOOD CELLS / PLATELET COUNT: tissue Blood; for ALANINE AMINOTRANSFERASE / ALBUMIN / ALKALINE PHOSPHATASE / ASPARTATE AMINOTRANSFERASE / BLOOD UREA NITROGEN / CARBON DIOXIDE / CHLORIDE / CHOLESTEROL / CREATINE PHOSPHOKINASE / CREATININE / GLUCOSE / LACTATE DEHYDROGENASE / LIPASE / PHOSPHORUS / POTASSIUM / SODIUM / TOTAL BILIRUBIN / TOTAL PROTEIN / URIC ACID: tissue Plasma
[1] = 0 mg/kg, 72 h, dose level Control, time 3 day
[2] = 0 mg/kg, 120 h, dose level Control, time 5 day
[3] = 5 mg/kg, 72 h, dose level Low, time 3 day

Which “ABSOLUTE BASOPHIL” value [1] does the source give for `C[N+](C)(C)CCOC(N)=O.[Cl-]` [CARBACHOL] here?
The value was 0 CELLS/uL.

What about the “ABSOLUTE EOSINOPHIL” value [1] of the same compound?
The value was 0 CELLS/uL.

And the “ABSOLUTE LYMPHOCYTE” value [1]?
Its value is 8482.5 CELLS/uL.

What about the “ABSOLUTE MONOCYTE” value [1] of the same compound?
Its value is 63.83 CELLS/uL.

And the “ABSOLUTE SEGMENTED NEUTROPHIL” value [1]?
The value was 887 CELLS/uL.

And the BASOPHIL [1]?
The BASOPHIL was 0%.

And the EOSINOPHIL [1]?
The EOSINOPHIL was 0%.

What about the “ERYTHROCYTE COUNT” value [1] of the same compound?
Its value is 5.49 x10E6/uL.

And the HEMATOCRIT [1]?
Its HEMATOCRIT is 34.5%.

What about the HEMOGLOBIN [1] of the same compound?
Its HEMOGLOBIN is 13.33 G/DL.

What about the “LEUKOCYTE COUNT” value [1] of the same compound?
Its value is 9.43 x10E3/uL.

And the LYMPHOCYTE [1]?
The LYMPHOCYTE was 90.17%.

What about the “MEAN CORPUSCULAR HEMOGLOBIN” value [1] of the same compound?
Its value is 24.3 pg.

And the “MEAN CORPUSCULAR HEMOGLOBIN CONCENTRATION” value [1]?
The value was 38.63 G/DL.

And the “MEAN CORPUSCULAR VOLUME” value [1]?
Its value is 62.88 fL.

And the MONOCYTE [1]?
Its MONOCYTE is 0.67%.

What about the NEUTROPHIL [1] of the same compound?
Its NEUTROPHIL is 9.17%.

And the “NUCLEATED RED BLOOD CELLS” value [1]?
The value was 0.67 /100WBC.

What about the “PLATELET COUNT” value [1] of the same compound?
The value was 1022.83 x10E3/uL.

What about the “ALANINE AMINOTRANSFERASE” value [1] of the same compound?
The value was 50.5 u/L.

What about the ALBUMIN [1] of the same compound?
The ALBUMIN was 4.08 G/DL.

What about the “ALKALINE PHOSPHATASE” value [1] of the same compound?
Its value is 368.33 u/L.

And the “ASPARTATE AMINOTRANSFERASE” value [1]?
Its value is 87.5 u/L.

What about the “BLOOD UREA NITROGEN” value [1] of the same compound?
Its value is 12.83 mg/dL.

And the “CARBON DIOXIDE” value [1]?
The value was 32.83 mmol/L.

What about the CHLORIDE [1] of the same compound?
The CHLORIDE was 99.67 MEQ/L.

What about the CHOLESTEROL [1] of the same compound?
Its CHOLESTEROL is 79.67 mg/dL.

And the “CREATINE PHOSPHOKINASE” value [1]?
Its value is 585 u/L.

And the CREATININE [1]?
The CREATININE was 0.22 mg/dL.

And the GLUCOSE [1]?
Its GLUCOSE is 135.67 mg/dL.

And the “LACTATE DEHYDROGENASE” value [1]?
The value was 171 u/L.

And the LIPASE [1]?
Its LIPASE is 9.5 u/L.

And the PHOSPHORUS [1]?
Its PHOSPHORUS is 11.18 mg/dL.

And the POTASSIUM [1]?
Its POTASSIUM is 6.25 MEQ/L.

What about the SODIUM [1] of the same compound?
Its SODIUM is 144.87 MEQ/L.

What about the “TOTAL BILIRUBIN” value [1] of the same compound?
The value was 0.2 mg/dL.

And the “TOTAL PROTEIN” value [1]?
Its value is 6.08 G/DL.

And the “URIC ACID” value [1]?
Its value is 0.65 mg/dL.

And the “ABSOLUTE BASOPHIL” value [2]?
Its value is 0 CELLS/uL.

What about the “ABSOLUTE EOSINOPHIL” value [2] of the same compound?
The value was 14.5 CELLS/uL.

What about the “ABSOLUTE LYMPHOCYTE” value [2] of the same compound?
The value was 7596.17 CELLS/uL.

And the “ABSOLUTE MONOCYTE” value [2]?
The value was 69.67 CELLS/uL.

And the “ABSOLUTE SEGMENTED NEUTROPHIL” value [2]?
Its value is 503 CELLS/uL.

And the BASOPHIL [2]?
Its BASOPHIL is 0%.

What about the EOSINOPHIL [2] of the same compound?
The EOSINOPHIL was 0.17%.

And the “ERYTHROCYTE COUNT” value [2]?
Its value is 5.49 x10E6/uL.

What about the HEMATOCRIT [2] of the same compound?
The HEMATOCRIT was 34.72%.

What about the HEMOGLOBIN [2] of the same compound?
The HEMOGLOBIN was 13.47 G/DL.

What about the “LEUKOCYTE COUNT” value [2] of the same compound?
Its value is 8.18 x10E3/uL.

And the LYMPHOCYTE [2]?
Its LYMPHOCYTE is 92.17%.

And the “MEAN CORPUSCULAR HEMOGLOBIN” value [2]?
The value was 24.57 pg.

And the “MEAN CORPUSCULAR HEMOGLOBIN CONCENTRATION” value [2]?
The value was 38.82 G/DL.

What about the “MEAN CORPUSCULAR VOLUME” value [2] of the same compound?
Its value is 63.3 fL.

And the MONOCYTE [2]?
Its MONOCYTE is 1%.

And the NEUTROPHIL [2]?
The NEUTROPHIL was 6.67%.

And the “NUCLEATED RED BLOOD CELLS” value [2]?
The value was 0 /100WBC.

What about the “PLATELET COUNT” value [2] of the same compound?
Its value is 1141 x10E3/uL.

What about the “ALANINE AMINOTRANSFERASE” value [2] of the same compound?
The value was 48.33 u/L.

What about the ALBUMIN [2] of the same compound?
The ALBUMIN was 4.07 G/DL.

What about the “ALKALINE PHOSPHATASE” value [2] of the same compound?
Its value is 395.67 u/L.

What about the “ASPARTATE AMINOTRANSFERASE” value [2] of the same compound?
The value was 85.67 u/L.

What about the “BLOOD UREA NITROGEN” value [2] of the same compound?
Its value is 15.83 mg/dL.

What about the “CARBON DIOXIDE” value [2] of the same compound?
Its value is 31.33 mmol/L.

What about the CHLORIDE [2] of the same compound?
The CHLORIDE was 100.83 MEQ/L.

What about the CHOLESTEROL [2] of the same compound?
Its CHOLESTEROL is 62.33 mg/dL.

And the “CREATINE PHOSPHOKINASE” value [2]?
The value was 248.33 u/L.

And the CREATININE [2]?
The CREATININE was 0.2 mg/dL.

And the GLUCOSE [2]?
Its GLUCOSE is 135.67 mg/dL.

And the “LACTATE DEHYDROGENASE” value [2]?
The value was 141.33 u/L.

And the LIPASE [2]?
Its LIPASE is 9.5 u/L.

And the PHOSPHORUS [2]?
Its PHOSPHORUS is 10.73 mg/dL.

And the POTASSIUM [2]?
The POTASSIUM was 6.07 MEQ/L.

What about the SODIUM [2] of the same compound?
The SODIUM was 145.35 MEQ/L.

What about the “TOTAL BILIRUBIN” value [2] of the same compound?
The value was 0.22 mg/dL.

And the “TOTAL PROTEIN” value [2]?
Its value is 6.12 G/DL.

And the “URIC ACID” value [2]?
Its value is 0.63 mg/dL.

What about the “ABSOLUTE BASOPHIL” value [3] of the same compound?
The value was 0 CELLS/uL.

And the “ABSOLUTE EOSINOPHIL” value [3]?
Its value is 50.33 CELLS/uL.

And the “ABSOLUTE LYMPHOCYTE” value [3]?
The value was 10617 CELLS/uL.

And the “ABSOLUTE MONOCYTE” value [3]?
The value was 63 CELLS/uL.

And the “ABSOLUTE SEGMENTED NEUTROPHIL” value [3]?
Its value is 603 CELLS/uL.

What about the BASOPHIL [3] of the same compound?
The BASOPHIL was 0%.

And the EOSINOPHIL [3]?
Its EOSINOPHIL is 0.33%.

And the “ERYTHROCYTE COUNT” value [3]?
The value was 5.09 x10E6/uL.

What about the HEMATOCRIT [3] of the same compound?
The HEMATOCRIT was 32.27%.

And the HEMOGLOBIN [3]?
Its HEMOGLOBIN is 12.67 G/DL.

What about the “LEUKOCYTE COUNT” value [3] of the same compound?
The value was 11.33 x10E3/uL.

What about the LYMPHOCYTE [3] of the same compound?
Its LYMPHOCYTE is 93.67%.

What about the “MEAN CORPUSCULAR HEMOGLOBIN” value [3] of the same compound?
Its value is 24.9 pg.

And the “MEAN CORPUSCULAR HEMOGLOBIN CONCENTRATION” value [3]?
Its value is 39.3 G/DL.

And the “MEAN CORPUSCULAR VOLUME” value [3]?
The value was 63.33 fL.

What about the MONOCYTE [3] of the same compound?
The MONOCYTE was 0.67%.

And the NEUTROPHIL [3]?
Its NEUTROPHIL is 5.33%.

What about the “NUCLEATED RED BLOOD CELLS” value [3] of the same compound?
The value was 0 /100WBC.

And the “PLATELET COUNT” value [3]?
The value was 1098.33 x10E3/uL.

And the “ALANINE AMINOTRANSFERASE” value [3]?
Its value is 65.67 u/L.

What about the ALBUMIN [3] of the same compound?
The ALBUMIN was 3.93 G/DL.

What about the “ALKALINE PHOSPHATASE” value [3] of the same compound?
The value was 297.33 u/L.

What about the “ASPARTATE AMINOTRANSFERASE” value [3] of the same compound?
The value was 89.67 u/L.

What about the “BLOOD UREA NITROGEN” value [3] of the same compound?
The value was 12 mg/dL.

And the “CARBON DIOXIDE” value [3]?
The value was 33.67 mmol/L.

And the CHLORIDE [3]?
Its CHLORIDE is 98.33 MEQ/L.

What about the CHOLESTEROL [3] of the same compound?
The CHOLESTEROL was 74.67 mg/dL.

What about the “CREATINE PHOSPHOKINASE” value [3] of the same compound?
Its value is 369.33 u/L.

What about the CREATININE [3] of the same compound?
The CREATININE was 0.19 mg/dL.

What about the GLUCOSE [3] of the same compound?
Its GLUCOSE is 134 mg/dL.

What about the “LACTATE DEHYDROGENASE” value [3] of the same compound?
Its value is 123 u/L.

And the LIPASE [3]?
Its LIPASE is 11 u/L.

What about the PHOSPHORUS [3] of the same compound?
Its PHOSPHORUS is 11.1 mg/dL.

What about the POTASSIUM [3] of the same compound?
The POTASSIUM was 5.93 MEQ/L.

What about the SODIUM [3] of the same compound?
Its SODIUM is 144.17 MEQ/L.

What about the “TOTAL BILIRUBIN” value [3] of the same compound?
The value was 0.13 mg/dL.

What about the “TOTAL PROTEIN” value [3] of the same compound?
The value was 5.83 G/DL.

What about the “URIC ACID” value [3] of the same compound?
Its value is 0.53 mg/dL.

From ChEMBL document CHEMBL3885881, “DrugMatrix”
